This is an account of results in US20240400583A1, “TRICYCLIC SULFAMIDES AND SULTAMS” (Merck Sharp & Dohme LLC, priority 2021, published 2024).

Where only a bound is given, the exact number is not on record here.

In one test the target is T1, DCAF15 (Homo sapiens, UniProt Q66K64, DEL276-383).
T1 construct: made in house; host or cells: Sf9 (baculovirus, Bac-to-Bac)
As to the kind of experiment: DCAF15 Displacement Assay (displacement of probe PT7795, FRET). It is filed as binding. Particulars: competition with 300 nM PT7795 on DDA1-DDB1ΔB-DCAF15Δpro triplex, 18 hours incubation, FRET 665/615. The source says: (§1) Proteins used for the assays were as follows: Human DDA1 (UniProt:Q9BW61), DDB1 (UniPro:Q16531), and DCAF15 (UniProt:Q66K64) coding sequences were cloned into pFastBac1 vectors and were co-expressed in Sf9 cells using Bac-to-Bac baculovirus expression system (Thermo Fisher Scientific). The expression construct for DCAF15 includes a N-terminal His6-tag to facilitate the purification. The atrophin-1 homology region of DCAF15 (amino acid residues 276-383) was excised (Apro, originally to facilitate crystallization). Triplex of DDA1-DDB1ΔB-DCAF15Apro, which has the BPB domain (aa 396 to 705) excised and replaced with a GNGNSG linker, was used in all the kinetic measurements because of the higher yield. R^1R^2 of RBM39 (aa 150 to 331; UniProt: Q14498) contained a C-terminal FLAG tag used in the DCAF15/RBM39 complex formation assay. DCAF15 Displacement Assay (Displacement FRET KD)
The previously described procedure was followed (See X. Du, et al., “Structural Basis and Kinetic Pathway of RBM39 Recruitment to DCAF15 by a Sulfonamide Molecular Glue E7820”, Structure, 27, 1625-1633.e3, 2019). Synthesis of the probe PT7795 is described in the article.
Binding of PT7795 to DDA1-DDB1ΔB-DCAF15Apro was measured by the FRET signal between europium-labeled anti-His antibody (AD0205, Perkin Elmer) that is associated with His-tagged DCAF15 and ALX647 moiety in PT7795. The concentration of PT7795 was varied from 2.3 nM to 1000 nM in 16 wells, each containing 25 mM HEPES pH7.5, 100 mM NaCl, 0.1 mg/ml BSA, 0.005% Tween 20, 0.5 mM TCEP, 4% DMSO, 0.5 nM europium-labeled anti-His antibody, and 10 nM triplex of DDA1-DDB1 DB-DCAF15 Apro. After equilibrating for 2-3 hours at 4° C., the plate was removed from the incubator, briefly spun, then read on a Spark 10 (Tecan) at the excitation/emission wavelength of 340 nm/615 nm and 340 nm/665 nm. To obtain Kd, the ratio of 665/615 readings was fitted to Equation 1, where F stands for the ratio of 665/615 […].
Binding of compounds in this disclosure to DCAF15 was measured in a competition by the displacement of PT7795. The concentration of PT7795 was kept at 300 nM while the concentration of a compound was varied from 0.01 to 100 μM. The incubation time was increased to 18 hours for enhanced signal to noise level. To obtain IC50, the ratio of 665/615 readings was fitted to Equation 2, where n is Hill slope.

The target in test [1] is T2, DCAF15 RBM39 ternary complex (Homo sapiens, UniProt Q14498+Q66K64, DEL276-383).
T2 construct: RBM39 (aa 150 to 331; UniProt: Q14498); TEV cleavage site (pGEX4T3 vector); made in house; host or cells: Sf9 (baculovirus) for the triplex; E. coli for the RBM39 fragment according to b294
As to the kind of experiment: DCAF15 RBM39 Ternary Complex Formation Assay. In kind it is binding. Particulars: apparent EC50 for compound-induced complex formation, 10 nM DCAF15 triplex, 50 nM RBM39 R1R2, FRET 665/615.
Source text: as §1
His-tagged DDA1-DDB1ΔB-DCAFISΔpro triplex and RIR2 with a C-terminal FLAG were used in the assay and compound-induced complex formation was monitored through resonance transfer between europium-labeled anti-His antibody and APC-labeled anti-FLAG antibody (AD0059F, Perkin Elmer).

Turning to `COC(=O)CCCc1[nH]c2c3c(cc(Cl)c2c1Cl)CN(Cc1ccnc(O)c1)S(=O)(=O)N3` [Compound 24, methyl 4-(6,7-dichloro-3-((2-hydroxypyridin-4-yl)methyl)-2,2-dioxido-1,3,4,9-tetrahydro-[1,2,6]thiadiazino[4,3-g]indol-8-yl)butanoate], the half-maximal inhibitory concentration (IC50) on DCAF15 amounted to 317 nM. Besides, the EC50 in test [1] was more than 25000 nM.

Broadly, the IC50 is the point on the concentration scale where inhibition reaches its midpoint. Broadly, the EC50 is the concentration needed to bring the measured effect to its halfway point.
